# Experimental data published in patent US11793824B2, “Administration of nicotinamide mononucleotide in the treatment of disease” (Washington University, priority 2013, dated 2023).
# How the values were obtained:
# [1] = Age-associated increases in blood lipid levels; format: in vivo, mouse
# Protocol: A 12 month-long NMN administration study using wild-type mice under a regular chow-fed condition was conducted. NMN was administered through drinking water, and two doses of NMN, 100 and 300 mg/kg body weight/day, were tested. […] To assess beneficial and possible adverse effects of NMN, a variety of physiological parameters were periodically monitored, including body weight, body temperature, food and water intake, fed and fasted blood glucose levels, fed and fasted plasma lipid panels, and glucose and insulin tolerance, in NMN-administered and control mice. Blood chemistry, blood cell counts, urine strip test, and other physiological tests including physical activity test were also checked.
# Blood levels of cholesterol, triglycerides, and free fatty acids are shown over 12 months in the control and the 100 and 300 mg/kg NMN-administered cohorts in FIG. 7. The results were analyzed with two-way RANOVA and one-way RANOVA. All values are presented as mean±SEM (n=25 for each group).
# Without being limited by theory, since NMN has an effect of suppressing age-associated body weight increase, it was hypothesized that NMN's effect on blood lipid levels could be due to the reduction in body weight. To address this possibility, lipid levels were compared among individual mice whose average body weights were matched through control and experimental cohorts. Body weight-matched blood levels of cholesterol, triglycerides, and free fatty acids are shown over 12 months in the control and the 100 and 300 mg/kg NMN-administered cohorts in FIG. 8. The results were analyzed with two-way RANOVA and one-way RANOVA. All values are presented as mean±SEM (n=10-15 for each group). […] All values are presented as mean±SEM (n=10-15 for each group). These findings indicate that NMN has the effect of suppressing the age-associated increase in blood FFA levels, independent of the reduction in body weight. Without being limited by theory, the effect of NMN on blood cholesterol levels may be secondary to the effect of suppressing age-associated body weight increase.
# [2] = Stability of NMN in drinking water; format: physicochemical
# [3] = 100 and 300 mg/kg groups vs control
smiles,measurement,setting,value
"NC(=O)c1ccc[n+]([C@@H]2O[C@H](COP(=O)([O-])O)[C@@H](O)[C@H]2O)c1 [NMN, nicotinamide mononucleotide]",increase of FFAs over time after body weight match,[1]; 100 mg/kg group,showed significant increases over time
same,increase of blood FFAs over time,"[1]; 100 mg/kg group, first 6 months",statistically significant increases
same,increase of FFAs over time after body weight match,[1]; 300 mg/kg group,did not show any statistically significant increases over time
same,increase of blood FFAs over time,[1]; 300 mg/kg group,did not show any statistically significant increase over time
same,age-associated increases in blood levels of FFAs,"[1]; 300 mg/kg, particularly at the 6-month time point",suppressed age-associated increases in blood levels of FFAs
same,FFA levels after matching body weight,[1]; [3],still lower
same,blood cholesterol levels after matching body weight,[1]; [3],very similar through control and experimental groups
same,age-associated increases in blood cholesterol and free fatty acids,"[1]; 100 and 300 mg/kg groups, 12 months",tended to be suppressed
same,stability of NMN in drinking water,[2]; in solution,stable in solution
same,degradation of NMN in drinking water,[2]; room temperature,No significant degradation
